{"source": "patent US4207308A", "about": "“Process for purifying iodinated bile acid conjugates” (priority 1977, dated 1980)", "key": {"Ab 927 [1]": {"system": "Ab 927", "experiment": "Radioimmunoassay cross-reactivity / displacement of cholylglycyl-125I-histamine tracer (Specificity of Tracer and Antibody)"}, "[2]": {"system": "antibodies from rabbits (anti BSA-cholylglycine conjugate), Ab 927", "experiment": "Antibody titer curves using cholylglycyl-125I-histamine (or 3H-cholylglycine) tracer", "format": "binding, rabbit", "experimental": "Young adult male New Zealand white rabbits were immunized at multiple sites on the back at bi-weekly intervals using 1.0 ml of BSA-cholylglycine conjugate (50 μg) emulsified with an equal volume of Freund's adjuvant. Serum was harvested every 2 weeks beginning one month after the initial immunization. […] 1 mg bovine gamma globulin was included in each tube. […] The supernate (bound) was decanted into another tube and both the charcoal (free) and supernate (bound) tubes were counted in a γ-spectrometer (Elscint). Results were expressed as the bound/free (B/F) ratio. A standard curve was constructed and unknowns were quantitated from a standard curve run with each assay. Antibodies from six different rabbits were produced and tested."}, "Ab 927 [3]": {"system": "Ab 927"}}}
{"compound": "Cholylglycyl-^125 I-histamine [cholylglycyl-125I-histamine]", "values": [{"measurement": "specificity (in words)", "setting": "Ab 927 [1]", "value": "maintain a specificity toward the conjugated bile salts, particularly cholate and chenodeoxycholate conjugates"}, {"measurement": "initial B/F (bound/free ratio)", "setting": "[2]; 1:100 dilution, approximately 3000 CPM cholylglycyl-125I-histamine, four antibodies", "value": "10.5 to 14.2"}, {"measurement": "Non-specific binding", "setting": "[2]; CPM in supernate without antibody, unchanged as long as 6 months after iodination", "value": "2-4%"}, {"measurement": "binding of tracer", "setting": "[2]; corresponds to B/F 14.2, 1:100 dilution", "value": 93, "unit": "%"}]}
{"compound": "C[C@H](CCC(=O)O)[C@H]1CC[C@H]2[C@@H]3CC[C@@H]4C[C@H](O)CC[C@]4(C)[C@H]3CC[C@]12C", "note": "[Lithocholic acid]", "values": [{"measurement": "activity", "setting": "Ab 927 [3]", "value": 2, "unit": "%"}]}
{"compound": "C[C@H](CCC(=O)NCC(=O)NCCc1c[nH]cn1)[C@H]1CC[C@H]2[C@@H]3[C@H](O)C[C@@H]4C[C@H](O)CC[C@]4(C)[C@H]3C[C@H](O)[C@]12C", "note": "[cholylglycylhistamine]", "values": [{"measurement": "Amount required for displacement relative to other bile salts (fold less)", "setting": "Ab 927 [1]; FIG. 4, less than other bile salts", "value": "approximately 10 fold"}, {"measurement": "affinity (in words)", "setting": "Ab 927 [1]; explanation for sensitivity not rising with titer", "value": "greater affinity"}]}
